Tests used:
[1] = biological target: T1, Glucose-dependent insulinotropic receptor (Homo sapiens, UniProt Q8TDV5); assay: Agonist activity at human GPR119 expressed in CHOK1 cells co-expressing CRE-luciferase incubated for 4 hrs by luciferase reporter gene assay; assay type: functional, cell-based
T1 sequence (Q8TDV5 whole entry): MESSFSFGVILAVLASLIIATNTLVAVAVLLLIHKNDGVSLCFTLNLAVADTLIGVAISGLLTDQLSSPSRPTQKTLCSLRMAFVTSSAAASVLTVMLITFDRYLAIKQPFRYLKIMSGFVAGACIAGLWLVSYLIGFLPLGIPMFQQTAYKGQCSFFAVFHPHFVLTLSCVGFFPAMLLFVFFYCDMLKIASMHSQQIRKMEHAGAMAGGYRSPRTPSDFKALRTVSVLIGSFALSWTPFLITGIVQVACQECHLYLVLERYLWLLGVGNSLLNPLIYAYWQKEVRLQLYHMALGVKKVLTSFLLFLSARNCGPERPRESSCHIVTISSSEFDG

[2] = biological target: T2, Glucose-dependent insulinotropic receptor (Homo sapiens) (UniProt Q8TDV5); assay: Agonist activity at human GPR119 expressed in CHOK1 cells co-expressing CRE-luciferase incubated for 4 hrs by luciferase reporter gene assay relative to 100 nM AR231453; assay type: functional, cell-based
T2 sequence (whole entry): T1 sequence (Q8TDV5 whole entry)

[3] = Clearance in human liver microsomes; assay type: ADME, microsome; details: read-out: CLH
[4] = Clearance in mouse liver microsomes; assay type: ADME, microsome; details: read-out: CLH
[5] = Drug metabolism in human liver microsomes assessed as CYP450-mediated metabolism of ethyl group; assay type: ADME
[6] = Drug metabolism in mouse liver microsomes assessed as CYP450-mediated metabolism of ethyl group; assay type: ADME
Mus musculus [7] = assay: Reduction in blood glucose AUC in C57BL/6N mouse at 10 mg/kg dosed 25 mins before glucose challenge and measured over 120 mins post glucose […] by oral glucose tolerance test; assay type: functional; set-up: scale not given: the % may be the effect or the level left
[8] = Plasma clearance in mouse at 0.5 mg/kg, iv; assay type: ADME, organism-based
[9] = Volume of distribution at steady state in mouse at 0.5 mg/kg, iv; assay type: ADME, organism-based; details: in vivo, read-out: Vdss
[10] = Half life in mouse at 0.5 mg/kg, iv; assay type: ADME, organism-based; details: in vivo
[11] = Cmax in mouse at 10 mg/kg, po; assay type: ADME, organism-based; set-up: dose 10 mg/kg, route oral; details: in vivo
[12] = AUC in mouse at 10 mg/kg, po; assay type: ADME, organism-based; details: in vivo
[13] = Oral bioavailability in mouse at 10 mg/kg; assay type: ADME, organism-based; details: in vivo
CHO-K1 = assay: Cytotoxicity in CHOK1 cells by CCK8 assay; assay type: cell-based; details: Cricetulus griseus
[14] = biological target: T1, Glucose-dependent insulinotropic receptor; assay: Agonist activity at human GPR119 expressed in HEK293 cells by luciferase reporter gene assay; assay type: cell-based
Mus musculus [15] = assay: Reduction in blood glucose AUC in C57BL/6N mouse at 30 mg/kg dosed 25 mins before glucose challenge and measured over 120 mins post glucose […] by oral glucose tolerance test; assay type: functional; set-up: scale not given: the % may be the effect or the level left

With `CCc1cnc(N2CCC(c3coc4c(N5CCc6cc(S(C)(=O)=O)ccc65)ncnc34)CC2)nc1` the EC50 ([1]; read-out: EC50) was 41 nM, the Emax [2] was 154% and the microsomal CLint [3] was 412 µL/min/mg. For the same compound, the microsomal CLint [4] was 187 µL/min/mg, the Drug metabolism [5] was “Metabolite_Detected” and the Drug metabolism [6] was “Metabolite_Detected”.
With `COc1cnc(N2CCC(c3coc4c(N5CCc6cc(S(C)(=O)=O)ccc65)ncnc34)CC2)nc1` the EC50 ([1]; read-out: EC50) was 310 nM, the Emax [2] was 186% and the microsomal CLint [3] was 255 µL/min/mg. The microsomal CLint [4] was 189 µL/min/mg.
For `CS(=O)(=O)c1ccc2c(c1)CCN2c1ncnc2c(C3CCN(c4ncc(Cl)cn4)CC3)coc12`, the EC50 ([1]; read-out: EC50) was 42 nM, the Emax [2] was 117% and the microsomal CLint [3] was 113 µL/min/mg. For the same compound, the microsomal CLint [4] was 108 µL/min/mg, the Activity (Mus musculus [7]) was 33% and the clearance [8] was 6.5 mL/min/kg. The Vd [9] was 2.3 L/kg, the half-life [10] was 5.1 h and the Cmax [11] was 2020 ng/mL. For the same compound, the AUC [12] was 9390 ng·h/mL, the bioavailability [13] was 37% and the IC50 (CHO-K1) was greater than 10000 nM.
For `CC(C)(C)OC(=O)N1CCC(c2coc3c(N4CC(C)(C)c5cc(S(C)(=O)=O)ccc54)ncnc23)CC1`, the EC50 [1] was “Not Active”.
Work on `CC(C)(C)OC(=O)N1CCC(n2nnc3c(Nc4ccc(S(C)(=O)=O)cc4F)ncnc32)CC1` yielded an EC50 [14] of 19 nM.
Compound `CS(=O)(=O)c1ccc2c(c1)CCN2c1ncnc2c(C3CCN(c4ncc(F)cn4)CC3)coc12` has an EC50 ([1]; read-out: EC50) of 201 nM, an Emax [2] of 229% and a microsomal CLint [3] of 257 µL/min/mg. The microsomal CLint [4] was 154 µL/min/mg.
Work on `CN(c1ccc(S(C)(=O)=O)cc1F)c1ncnc2c(C3CCN(C(=O)OC(C)(C)C)CC3)coc12` yielded an EC50 ([1]; read-out: EC50) greater than 1000 nM and an Emax [2] of 6%.
In the case of `CC(O)c1cnc(N2CCC(c3coc4c(N5CCc6cc(S(C)(=O)=O)ccc65)ncnc34)CC2)nc1` (configuration not stated), the EC50 ([1]; read-out: EC50) is reported as 586 nM, the Emax [2] is reported as 33% and the microsomal CLint [3] is reported as 102 µL/min/mg. The microsomal CLint [4] was 66 µL/min/mg.
In the case of `Cc1cnc(N2CCC(c3coc4c(N5CCc6cc(S(C)(=O)=O)ccc65)ncnc34)CC2)nc1`, the EC50 ([1]; read-out: EC50) is reported as 252 nM, the Emax [2] is reported as 159% and the microsomal CLint [3] is reported as 349 µL/min/mg. For the same compound, the microsomal CLint [4] was 145 µL/min/mg.
`CS(=O)(=O)c1ccc2c(c1)CCN2c1ncnc2c(C3CCN(c4ncccn4)CC3)coc12` gave an EC50 ([1]; read-out: EC50) of 512 nM and an Emax [2] of 196%.
`CC(C)(C)OC(=O)N1CCC(c2c[nH]c3c(Nc4ccc(S(C)(=O)=O)cc4F)ncnc23)CC1` gave an EC50 ([1]; read-out: EC50) greater than 1000 nM and an Emax [2] of 9%.
For `CC(C)(C)OC(=O)N1CCC(c2coc3c(Nc4ccc(S(C)(=O)=O)cc4F)ncnc23)CC1`, the Activity (Mus musculus [15]) was 13%, the EC50 ([1]; read-out: EC50) was 129 nM and the Emax [2] was 123%.
In the case of `CC(C)(C)OC(=O)N1CCC(c2noc3c(Nc4ccc(S(C)(=O)=O)cc4F)ncnc23)CC1`, the EC50 ([1]; read-out: EC50) is reported as 353 nM and the Emax [2] is reported as 137%.
With `CS(=O)(=O)c1ccc2c(c1)CCN2c1ncnc2c(C3CCN(c4ncc(O)cn4)CC3)coc12` the EC50 ([1]; read-out: EC50) was 391 nM, the Emax [2] was 145% and the microsomal CLint [3] was 132 µL/min/mg. For the same compound, the microsomal CLint [4] was 107 µL/min/mg.
For `CC(C)(C)OC(=O)N1CCC(c2csc3c(Nc4ccc(S(C)(=O)=O)cc4F)ncnc23)CC1`, the EC50 ([1]; read-out: EC50) was 79 nM and the Emax [2] was 82%.
In the case of `CC(=O)c1cnc(N2CCC(c3coc4c(N5CCc6cc(S(C)(=O)=O)ccc65)ncnc34)CC2)nc1`, the EC50 ([1]; read-out: EC50) is reported as 78 nM, the Emax [2] is reported as 12% and the microsomal CLint [3] is reported as 74 µL/min/mg. The microsomal CLint [4] was 154 µL/min/mg.
Compound `CC(C)(C)OC(=O)N1CCC(c2coc3c(N4CCc5cc(S(C)(=O)=O)ccc54)ncnc23)CC1` has an EC50 ([1]; read-out: EC50) of 53 nM, an Emax [2] of 123% and a microsomal CLint [3] of 550 µL/min/mg. The microsomal CLint [4] was 508 µL/min/mg.
Compound `CC(C)(C)OC(=O)N1CCC(c2coc3c(N4CCCc5cc(S(C)(=O)=O)ccc54)ncnc23)CC1` has an EC50 ([1]; read-out: EC50) of 793 nM and an Emax [2] of 1%.
`Cn1cc(C2CCN(C(=O)OC(C)(C)C)CC2)c2ncnc(Nc3ccc(S(C)(=O)=O)cc3F)c21` gave an EC50 ([1]; read-out: EC50) greater than 1000 nM and an Emax [2] of 3%.
In the case of `CC(C)(C)OC(=O)N1CCC(c2coc3c(N4c5ccc(S(C)(=O)=O)cc5CC4(C)C)ncnc23)CC1`, the EC50 [1] is reported as “Not Active”.
In the case of `CCCc1cnc(N2CCC(n3nnc4c(Nc5ccc(S(C)(=O)=O)cc5F)ncnc43)CC2)nc1`, the EC50 [14] is reported as 82 nM.

Source: ChEMBL document CHEMBL4052704, “Optimization of a novel series of potent and orally bioavailable GPR119 agonists” (Bioorg Med Chem Lett, 2017)
